Data taken from patent US9504685B2, “Method for treating a pulmonary hypertension condition” (Gilead Sciences, Inc., priority 2006, dated 2016).

System: subjects with PAH
Assay: Example 1 (ARIES-2) placebo-controlled Phase III trial, efficacy
Type: in vivo, human
Experimental: The primary objective of this study was to determine the effect of ambrisentan on exercise capacity in subjects with PAH. The secondary objectives of this study were to evaluate effects of ambrisentan on other clinical measures of PAH, as well as safety and tolerability of the study drug.
Study drug was provided in round, biconvex, oral tablets that were identical in appearance. Three strengths of active study drug, containing 1 mg, 2.5 mg or 5 mg of ambrisentan, were used in this study. All study drug was packaged in blister cards. Subjects were instructed to take study drug once daily (q.d.) by mouth (p.o.) in the morning, with or without food.
The maximum study duration was up to 14 weeks from the time of initial screening procedures to the final study visit (Week 12). Screening procedures were performed a maximum of 2 weeks prior to the first dose of study drug. The maximum duration of study drug treatment was 12 weeks.
Men and women, 18 years of age or older, with idiopathic PAH, PAH associated with connective tissue disease (CTD), e.g., mixed CTD, CREST syndrome, systemic sclerosis (scleroderma), overlap syndrome or systemic lupus erythematosus, or PAH associated with anorexigen use or HIV infection were enrolled in this study. Subjects were to have a documented mean PAP≧25 mmHg, PVR>3 mmHg/L/min, and PCWP or LVEDP<15 mmHg. Subjects must have been able to walk a distance of at least 150 m but no more than 450 m during 2 consecutive 6MWTs to be eligible for inclusion in the study.
After a 2 week screening period, eligible subjects were stratified based on the underlying etiology of PAH (idiopathic or non-idiopathic) and were randomized to 1 of 3 treatment groups (placebo, 2.5 mg or 5 mg ambrisentan) in a ratio of 1:1:1. One blinded dose reduction was permitted during the 12-week treatment period in the event of study drug intolerance (e.g., 5 mg to 2.5 mg, 2.5 mg to 1 mg, placebo to placebo). Subjects received a daily dose of 1 mg ambrisentan only if they reduced from the 2.5 mg dose group. Subjects were assessed for efficacy and safety at monthly intervals.
Therefore, after a minimum treatment period of 4 weeks, subjects who met 2 or more of the following predefined early escape criteria may have been removed from the study: • (a) a decrease from baseline of at least 20% in 6MWD; • (b) an increase of 1 or more WHO functional class; • (c) worsening right ventricular failure (e.g., as indicated by increased jugular venous pressure, new or worsening hepatomegaly, ascites or peripheral edema); • (d) rapidly progressing cardiogenic, hepatic or renal failure; and/or • (e) refractory systolic hypotension (systolic blood pressure <85 mmHg).
The primary efficacy endpoint was change from baseline in 6MWD evaluated after 12 weeks of treatment compared to placebo.
The secondary efficacy endpoints included: • (a) time to clinical worsening of PAH, as defined by the time from randomization to the first occurrence of death, lung transplantation, hospitalization for PAH, atrial septostomy, study discontinuation due to addition of other PAH therapeutic agents, or study discontinuation due to 2 or more early escape criteria; • (b) change from baseline measured after 12 weeks of treatment compared to placebo in: • (i) WHO functional class; • (ii) SF-36® health survey physical functioning scale; • (iii) BDI immediately following exercise; and/or • (iv) an assessment of the safety and tolerability of the study drug; and • (c) change from baseline measured after 12 weeks of treatment compared to placebo in plasma levels of ET-1, cTnT and BNP. Safety Assessments
For the ITT population, subjects were considered as belonging to their randomized treatment group, regardless of the actual treatment received.
The primary efficacy endpoint was the change from baseline in 6MWD evaluated after 12 weeks of treatment compared to placebo, where the last observation was carried forward. […]

[1] = 5 mg once daily, baseline to Week 12
[2] = combined 2.5 mg and 5 mg groups, 12 weeks
[3] = combined 2.5 mg and 5 mg groups, ITT population
[4] = combined 2.5 mg and 5 mg groups, baseline to Week 12

## COC(c1ccccc1)(c1ccccc1)[C@H](Oc1nc(C)cc(C)n1)C(=O)O [ambrisentan]
[1]
  Change in SF-36 Role-physical, mean (SD): +7.61 (10.41)
  Change in SF-36 Social functioning, mean (SD): +4.85 (11.89)
  Change in SF-36 Vitality, mean (SD): +5.21 (8.79)
  Change in WHO functional class: +1 class: 2 (3.2) subjects (% of ITT population)
  Change in WHO functional class: +2 classes: 0 (0.0) subjects (% of ITT population)
  Change in WHO functional class: no change: 52 (82.5) subjects (% of ITT population)
  Change in WHO functional class: −1 class: 8 (12.7) subjects (% of ITT population)
  Change in WHO functional class: −2 classes: 1 (1.6) subjects (% of ITT population)
South American subgroup, 2.5 mg once daily
  placebo-adjusted 6MWD change from baseline at Week 12: +50.5 m
South American subgroup, 5 mg once daily
  placebo-adjusted 6MWD change from baseline at Week 12: +79.5 m
WHO class I/II subgroup, 2.5 mg once daily
  placebo-adjusted 6MWD change from baseline at Week 12: +44.1 m
WHO class I/II subgroup, 5 mg once daily
  placebo-adjusted 6MWD change from baseline at Week 12: +67.7 m
WHO class III/IV subgroup, 2.5 mg once daily
  placebo-adjusted 6MWD change from baseline at Week 12: +17.6 m
WHO class III/IV subgroup, 5 mg once daily
  placebo-adjusted 6MWD change from baseline at Week 12: +51.8 m
Combined 2.5 mg and 5 mg groups
  placebo-adjusted BDI at Week 12: −1.1
[2]
  Clinical worsening event: Atrial septostomy: 0 (0.0) subjects (% of ITT population)
  Clinical worsening event: Death: 2 (1.6) subjects (% of ITT population)
  Clinical worsening event: Escape criteria: 3 (2.4) subjects (% of ITT population)
  Clinical worsening event: Hospitalization for PAH: 5 (3.9) subjects (% of ITT population)
  Clinical worsening event: Lung transplantation: 0 (0.0) subjects (% of ITT population)
  Clinical worsening event: Study withdrawal due to addition of PAH treatment: 0 (0.0) subjects (% of ITT population)
  Clinical worsening: Total subjects with ≧1 event: 6 (4.7) subjects (% of ITT population)
[3]
  Change in 6MWD from baseline to Week 12, mean: +35.7 meters
  Week 12 6MWD, mean: 387.0 meters
Combined 2.5 mg and 5 mg groups, Week 12
  subjects who deteriorated by at least 1 WHO class: 3.9%
[4]
  Change in SF-36 Bodily pain, mean (SD): +1.40 (10.96)
  Change in SF-36 General health, mean (SD): +4.40 (7.40)
  Change in SF-36 Mental component summary, mean (SD): +5.17 (11.00)
  Change in SF-36 Mental health, mean (SD): +4.50 (9.88)
  Change in SF-36 Physical component summary, mean (SD): +3.38 (7.69)
  Change in SF-36 Role-emotional, mean (SD): +5.63 (13.86)
  Change in SF-36 Role-physical, mean (SD): +6.74 (11.07)
  Change in SF-36 Social functioning, mean (SD): +4.70 (10.81)
  Change in SF-36 Vitality, mean (SD): +4.64 (8.94)
  Change in WHO functional class: +1 class: 4 (3.1) subjects (% of ITT population)
  Change in WHO functional class: +2 classes: 1 (0.8) subjects (% of ITT population)
  Change in WHO functional class: no change: 103 (81.1) subjects (% of ITT population)
  Change in WHO functional class: −1 class: 18 (14.2) subjects (% of ITT population)
  Change in WHO functional class: −2 classes: 1 (0.8) subjects (% of ITT population)
Eastern European subgroup, 2.5 mg once daily
  placebo-adjusted 6MWD change from baseline at Week 12: +66.1 m
Eastern European subgroup, 5 mg once daily
  placebo-adjusted 6MWD change from baseline at Week 12: +88.0 m
Female subjects, 2.5 mg once daily
  placebo-adjusted 6MWD change from baseline at Week 12: +42.5 m
Female subjects, 5 mg once daily
  placebo-adjusted 6MWD change from baseline at Week 12: +75.7 m
Idiopathic PAH subgroup, 2.5 mg once daily
  placebo-adjusted 6MWD change from baseline at Week 12: +56.3 m
Idiopathic PAH subgroup, 5 mg once daily
  placebo-adjusted 6MWD change from baseline at Week 12: +75.7 m
Male subjects, 2.5 mg once daily
  placebo-adjusted 6MWD change from baseline at Week 12: +6.8 m
Male subjects, 5 mg once daily
  placebo-adjusted 6MWD change from baseline at Week 12: +2.7 m
non-idiopathic PAH subgroup, 2.5 mg once daily
  placebo-adjusted 6MWD change from baseline at Week 12: −12.6 m
non-idiopathic PAH subgroup, 5 mg once daily
  placebo-adjusted 6MWD change from baseline at Week 12: +29.5 m
Subjects receiving ambrisentan (combined group), 12 weeks
  reduction in the probability of clinical worsening (hazard ratio) compared to placebo: 80%
Subjects receiving ambrisentan (combined), 12 weeks
  subjects hospitalized for PAH: 3.9%
Western European/Israel subgroup, 2.5 mg once daily
  placebo-adjusted 6MWD change from baseline at Week 12: +3.0 m
Western European/Israel subgroup, 5 mg once daily
  placebo-adjusted 6MWD change from baseline at Week 12: +39.4 m
